We go through 10 compounds from patent US11851389B2, “Cationic lipids for nucleic acid delivery and preparation thereof” (RAMOT AT TEL-AVIV UNIVERSITY LTD., priority 2016, dated 2023).

Series [1] in a line: LNP size distribution, PDI and ζ potential by dynamic light scattering. Format: physicochemical. Particulars: LNP-siRNA formulations; for PDI / Size (d · nm): DLS. The procedure:
LNPs were prepared by using microfluidic micro mixture (Precision NanoSystems, Vancouver, BC, Canada) as described by Cohen et. al. One volume of lipid mixtures (cationic lipid, DSPC, Chol, DMG-PEG and DSPE-PEG Mal at 50:10:38:1.5:0.5 mole ratio, […] total lipid concentration) in ethanol and three volumes of siRNA (1:16 w/w siRNA to lipid) containing acetate buffer solutions were injected through the micro mixer at a combined flow rate of 2 mL/minute (0.5 mL/min for ethanol and 1.5 mL/min for aqueous buffer). For labeled LNPs, 10% of Alexa-647 labeled siRNA were incorporated. For Cy5 labeled particles, 10% Cy5 labeled non-targeted siRNA was used. The resultant mixture was dialyzed against PBS (pH 7.4) for 16 h to remove ethanol.
LNPs size distribution and ζ potential were determined by dynamic light scattering using a Malvern nano ZS ζ-sizer (Malvern instruments, UK). For size measurements, LNPs were diluted 1:20 in PBS. […] For ζ potential measurements, LNPs were diluted 1:200 in DDW. In some cases, as indicated, size and zeta potential measurements were performed in water.

The subject of a further series is HEK 293 cells. The experiment in a line: In vitro expression of mKATE-pDNA, flow cytometry. It counts as cell-based. Particulars: 72 hr; for mKATE expression: HEK 293, 0.6 nM pDNA. The procedure: In vitro expression of pDNA in HEK 293 cells: HEK cells were treated with LNPs composed of either lipid1 or lipid 10 encapsulated with mKATE-pDNA at the concentration of 0.6 nM pDNA. After 72 hr, mKATE expression was analyzed by flow cytometry.
Dose dependent expression of pDNA in HEK 293 cells: HEK cells were treated with LNPs composed of either lipid1 or lipid 10 encapsulated with mKATE-pDNA at different amount pDNA. After 72 hr, mKATE expression was analyzed by flow cytometry.

Series [2] concerns Drug resistant human ovarian carcinoma cells (NAR). The experiment in a line: PLK-1 expression by qPCR after LNP-siPLK-1 or LNP-siLuc. Format: cell-based. Particulars: 72 hrs. The procedure: (§1) The mRNA levels of pololike kinase 1 (PLK1 gene) in cells was quantified by real-time PCR, forty eight or Seventy-two hours post-transfection. Total RNA was isolated using the E-Z RNA purification kit (Biological industries, Beit Haemek, Israel), and 1 μg of RNA from each sample was reverse transcribed into cDNA using the High Capacity cDNA Reverse Transcription Kit (Applied Biosystems, Foster City, CA), Quantification of cDNA (5 ng total) was performed on the step one Sequence Detection System (Applied Biosystems, Foster City, CA) using syber green (Applied Biosystems). GAPDH was chosen as a housekeeping gene.
(§2) Supt1 or NAR or OVCAR cells were placed in tissue culture 12-wells plates at a density of 1×10^5 cells with 1 mL of full medium. LNPs containing different siRNAs (siPLK1 or siCD45 or siLUC) were added to the wells and the concentration was mentioned in figures. Cells were isolated at different time intervals mentioned in the figures and analyzed by either flow cytometry (for siCD45 knockdown), or qPCR for analysis of PLK1 silencing. Apoptosis assay using PI/Annexin was analyzed by flow cytometry in case of siPLK1 induced cell death.
Drug resistant human ovarian carcinoma cells (NAR) were treated with either LNP-siPLK-1 or LNP-siLuc nanoparticles Lipid 1 LNPs (A); Lipid 10&11 LNPs (B) for 72 hrs and PLK-1 expression was measured by qPCR as described in Example 1.

The subject of series [3] is Human ovarian cancer cells (NAR cells). Put plainly: Apoptosis by FACS using PI/Annexin after siPLK1-LNPs. It counts as cell-based. The conditions noted are these: 48 hr, PI/Annexin FACS. The procedure:
as §2
Human ovarian cancer cells (NAR cells) were treated with lipid1/siPLK1 nanoparticles for 48 hr at different siRNA concentrations (0.2 μM and 0.1 μM). Apoptotic cells were analyzed by FACS using PI/Annexin. […] Percentage of early apoptotic cells was higher in cells treated with siPLK1-LNPs at 0.2 uM dose of siPLK1.
Human ovarian cancer cells (NAR cells) were treated with either lipid10 or lipid 11/siPLK1 nanoparticles for 48 hr at different siRNA concentrations (0.1 μM and 0.05 μM). siLUC-LNPs used as a negative control. Apoptotic cells were analyzed by FACS using PI/Annexin.

Series [4] has as its system Human B-cell lymphoma suspension cells (RPMI-8226). The experiment in a line: Cell viability after PLK1 silencing, XTT assay. Format: cell-based. Particulars: RPMI-8226, 48 hrs. The protocol: Human B-cell lymphoma suspension cells (RPMI-8226) were incubated with siPLK1-LNPs or siCtl-LNPs composed of either lipid 38 or 55 at different concentrations for 48 hrs. Cell viability affected by PLK1 down regulation was measured by XTT assay.

For series [5], the system named is Human multiple myeloma suspension cells (U266). Put plainly: PLK1 expression by qPCR after siPLK1-LNPs. Particulars: U266, 48 hrs, normalized to LNPs-ctl siRNA treated cells. It counts as cell-based. The protocol:
as §1
Human multiple myeloma suspension cells (U266) were incubated with LNPs containing siPLK1 at different concentrations for 48 hrs. PLK1 expression was measured by qPCR. PLK1-mRNA levels were normalized to LNPs-ctl siRNA treated cells.

For series [6] the test system is unchanged. Put plainly: Cell viability after PLK1 silencing, XTT assay. It counts as cell-based. The conditions noted are these: U266, 48 hrs. The procedure: Human multiple myeloma suspension cells (U266) were incubated with siPLK1-LNPs or siCtl-LNPs composed of either lipid 38 or 55 at different concentrations for 48 hrs. Cell viability affected by PLK1 down regulation was measured by XTT assay.

Series [7] has as its system Human multiple myeloma suspension cells (MM1). The experiment in a line: Cell viability after PLK1 silencing, XTT assay. The conditions noted are these: MM1, 48 hrs. Format: cell-based. The protocol: Human multiple myeloma suspension cells (MM1) were incubated with siPLK1-LNPs or siCtl-LNPs composed of either lipid 38 or 55 at different concentrations for 48 hrs. Cell viability affected by PLK1 down regulation was measured by XTT assay.

For series [8], the system named is Human colon carcinoma cells (HCT116). Put plainly: Toxicity of LNPs with ctl siRNA, XTT cell viability. It counts as cell-based. Particulars: 72 hrs. The protocol: Human colon carcinoma cells (HCT116) were incubated with LNPs with ctl siRNA (see methods) for 72 hrs. The cell viability was measured by XTT assay. Toxicity of LNPs composed of either lipid 38 or lipid 55 is compared with gold standard LNPs composed of Dlin-MC3-DMA.

Regarding `CCCCC/C=C\C/C=C\CCCCCCCCC(CCCCCCCC/C=C\C/C=C\CCCCC)OC(=O)CCCN(C)C` [Dlin-MC3-DMA, reference compound], in series [1], the “Zeta-potential (mV)” value is reported as −1 mV, the PDI came out at 0.18 and the “Size (d · nm)” value is listed as 44.5 nm. Moreover, in the series on HEK 293 cells, the mKATE expression entry was “did not show any effect on mKATE expression”.

Turning to `CCCCC/C=C\C/C=C\CCCCCCCCNN(CCCCCCCC/C=C\C/C=C\CCCCC)CCCCN(C)C` [Lipid 2], in series [1], the “Zeta-potential (mV)” value stood at 13.9 mV, the PDI was determined as 0.06 and the “Size (d · nm)” value came to 56.3 nm.

`CCCCC/C=C\C/C=C\CCCCCCCCN(CCCCCCCC/C=C\C/C=C\CCCCC)OC(=O)CN(C)C` [Lipid 9]: in series [1], the “Zeta-potential (mV)” value is on record as −13.6 mV, the PDI amounted to 0.04 and the “Size (d · nm)” value came to 75.1 nm.

`CCCCC/C=C\C/C=C\CCCCCCCCN(CCCCCCCC/C=C\C/C=C\CCCCC)NC(=O)CCCN(C)C` [Lipid 10]: in series [2], the “PLK-1 expression, LNP-siLuc control siRNA” value is listed as “no effect on plk1 expression” and the “PLK-1 expression, LNP-siPLK-1” value is on record as “down regulating plk1 gene efficiently at different doses”. Also, the “Apoptosis induced by siPLK1-LNPs” value in series [3] is on record as “efficiently downregulating PLK1 gene followed by inducing apoptosis in NAR cells”. In series [1], the “Zeta-potential (mV)” value is 18.5 mV, the PDI is 0.08 and the “Size (d · nm)” value worked out at 50.5 nm. Besides, in the series with HEK 293 cells, the mKATE expression result was “mKATE expression was observed”. The “Dose dependence of mKATE expression” value with HEK 293 cells (HEK 293, different amount pDNA) was “dose dependent expression of mKATE”.

Turning to `CCCCC/C=C\C/C=C\CCCCCCCCN(CCCCCCCC/C=C\C/C=C\CCCCC)NC(=O)[C@@H](N)CCCCN(C)C` [Lipid 11, 2-amino-6-(dimethylamino)-N′,N′-di((9Z,12Z)-octadeca-9,12-dien-1-yl)hexanehydrazide], in [2], the “PLK-1 expression, LNP-siLuc control siRNA” value is reported as “no effect on plk1 expression” and the “PLK-1 expression, LNP-siPLK-1” value is recorded as “down regulating plk1 gene efficiently at different doses”. In addition, in series [3], the “Apoptosis induced by siPLK1-LNPs” value is given as “efficiently downregulating PLK1 gene followed by inducing apoptosis in NAR cells”. In series [1], the “Zeta-potential (mV)” value was found to be 20.4 mV, the PDI came to 0.10 and the “Size (d · nm)” value worked out at 108.5 nm.

`CCCCC/C=C\C/C=C\CCCCCCCCN(CCCCCCCC/C=C\C/C=C\CCCCC)OC(=O)CCCN(C)C` [Lipid 14]: in [1], the “Zeta-potential (mV)” value is −3.6 mV, the PDI is on record as 0.09 and the “Size (d · nm)” value stood at 44.3 nm.

On to `CCCCC/C=C\C/C=C\CCCCCCCCN(CCCCCCCC/C=C\C/C=C\CCCCC)NCCN(C)C` [Lipid 15], for which, in [1], the “Zeta-potential (mV)” value is recorded as 10.1 mV, the PDI stood at 0.11 and the “Size (d · nm)” value is 52.5 nm.

`CCCCC/C=C\C/C=C\CCCCCCCCN(CCCCCCCC/C=C\C/C=C\CCCCC)NC(=O)CCCN1CCN(C)CC1` [Lipid 21]: in [1], the “Zeta-potential (mV)” value is recorded as −2.8 mV, the PDI amounted to 0.16 and the “Size (d · nm)” value is listed as 67.7 nm.

With `CCCCC/C=C\C/C=C\CCCCCCCCN(CCCCCCCC/C=C\C/C=C\CCCCC)OC(=O)Cc1c[nH]cn1` [Lipid 33], in [1], the “Zeta-potential (mV)” value was −10.8 mV, the PDI is 0.15 and the “Size (d · nm)” value is on record as 46.0 nm.

As for `CCCCC/C=C\C/C=C\CCCCCCCCN(CCCCCCCC/C=C\C/C=C\CCCCC)CCOC(=O)CCCN1CCN(C)CC1` [Lipid 55], in [4], the “Cell viability, siCtl-LNPs” value is listed as “no effect on the cell viability” and the “Cell viability, siPLK1-LNPs” value was “dose dependent effect on B-cell lymphoma cancer cell viability”. Moreover, the “PLK1 expression, siPLK1-LNPs” value in series [5] was “efficiently down regulate”. In addition, in series [6], the “Cell viability, siCtl-LNPs” value is listed as “no effect on the cell viability” and the “Cell viability, siPLK1-LNPs” value is “more effect on cell viability compared to Dlin-MC3-DMA LNPs”. Also, in series [7], the “Cell viability, siCtl-LNPs” value is listed as “no effect on the cell viability” and the “Cell viability, siPLK1-LNPs” value was “dose dependent effect on multiple myeloma cancer cell viability”. Further, the “Toxicity of LNPs (cell viability)” value in series [8] is on record as “less toxic than LNPs composed of Dlin-MC3-DMA”. In addition, in series [1], the “Zeta-potential (mV)” value is given as −1.28 mV, the PDI is reported as 0.17 and the “Size (d · nm)” value is recorded as 97.0 nm.
